BindingDB's records for doi:10.1038/sj.bjp.0701860 (Universit&Aagrove, 1998)

Biological target: Melatonin receptor type 1A (Homo sapiens, UniProt P48039)
Sequence (P48039 whole entry): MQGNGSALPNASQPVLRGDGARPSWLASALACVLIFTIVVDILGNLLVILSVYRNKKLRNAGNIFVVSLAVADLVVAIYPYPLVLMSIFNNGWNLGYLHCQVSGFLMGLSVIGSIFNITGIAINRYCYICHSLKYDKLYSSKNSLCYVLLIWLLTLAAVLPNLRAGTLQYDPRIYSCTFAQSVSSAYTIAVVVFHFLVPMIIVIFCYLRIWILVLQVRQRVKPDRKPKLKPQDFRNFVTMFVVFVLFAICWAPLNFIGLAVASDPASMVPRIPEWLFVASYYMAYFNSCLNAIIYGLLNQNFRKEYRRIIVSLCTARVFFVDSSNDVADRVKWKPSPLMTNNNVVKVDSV

Compound	Ki [nM]
COc1ccc2[nH]c(-c3ccccc3)c(CCNC(C)=O)c2c1 [Melatonin,2-Phenyl]	0.02
CC(=O)n1cc(CCN)c2cc(O)ccc21 [NSC_260803]	484
